Assay results reported in patent publication US7491836B2, “Non-ionic surfactants for poorly soluble molecules” (AstraZeneca AB, priority 2003, dated 2009).
In brackets after ≈: the same amount, converted by molar mass. Like-named read-outs stand apart in the source and are kept apart here.

Experiments:
CACO-2 cells = assay: Epithelial cell interaction monitored as transepithelial electrical resistance (TEER); assay type: cell-based
Procedure: Possible interaction with epithelial cells in the form of CACO-2 cells monitored as transepitheliar electrical resistance (TEER) was studied for some of the compounds. In short, after an equilibration time of 60 min the buffer solution at the donor side was exchanged with a buffer solution containing a certain concentration of the surfactant and TEER was then measured after 8 hours.

[1] = tested on: dog blood erythrocyte suspension; assay: Haemolytic activity, static method (erythrocyte suspension incubated with surfactant, haemoglobin analysed); assay type: cell-based; settings: for Hemolysis: 40 min at 37° C.
Procedure: A static method for evaluating the haemolytic activity of compounds was used. In short, dog blood is processed to an erythrocyte suspension, which is then incubated (40 min at 37° C.) with varying concentrations of a surfactant. The incubation is terminated by centrifugation after which the plasma, now containing different amounts of haemoglobin, can be removed and analysed. The results obtained for various MePEG- and PEG mono-12-acyloxy-stearate esters compared with a reference substance (Tween 80), are summarized in tables 3-4.

[2] = cited from earlier work
physchem = assay: physchem
Procedure: The solubilization capacity of the compounds of the invention and compounds of prior art for two poorly soluble (i.e. less than sparingly soluble) drug molecules, felodipine and griseofulvin, were tested. […] Sci., 1998, 87(2), 200-8]. The solubilization capacity for each surfactant was determined from the slope of the curve in a graph where the felodipine/griseofulvin concentration was plotted against the surfactant concentration at surfactant concentrations above CMC (critical micellar concentration).

Row | Compound | TEER after 8 hours exposure (CACO-2 cells; surfactant conc 10 mM) [%] | TEER after 8 hours exposure (CACO-2 cells; surfactant conc 50 mM) [%] | TEER after 8 hours exposure (CACO-2 cells; surfactant conc 0.1 mM) [%] | TEER after 8 hours exposure (CACO-2 cells; surfactant conc 1 mM) [%] | other results
1 | MePEG1200 12-stearoyloxy-stearate | 101 | 71 | – | – | –
2 | CCCCCCC(CCCCCCCCCCC(=O)OCCOCCOCCOCCOCCOCCOCCOCCOCCOCCOCCOCCOCCO)OC(=O)CCCCC (stereo not shown) [PEG600 mono-12-hexanoyloxy-stearate] | 39 | 37 | 89 | 43 | Hemolysis ([1]; surfactant conc 0.6 mM): 83%; Hemolysis ([1]; surfactant conc 0.7 mM): 92%
3 | MePEG1200 12-palmitoyloxy-stearate | 94 | 103 | – | – | –
4 | PEG1500 mono-12-oleoyloxy-stearate | 95 | 108 | 105 | 104 | –
5 | CCCCCCC(O)CCCCCCCCCCC(=O)OCCOCCOCCOCCOCCOCCOCCOCCOCCOCCOCCOCCOC (stereo not shown) [MePEG550 12-hydroxystearate] | – | – | – | – | haemolysis (in words) ([1]; at 1 mM): profound hemolysis; Hemolysis ([1]; surfactant conc 1.0 mM): 25%; Hemolysis ([1]; surfactant conc 5.0 mM): 86%; Hemolysis ([1]; surfactant conc 10 mM): 79%; concentration causing total haemolysis ([1]; text summary of Tables 3-4): 5000 µM
6 | MePEG2000 12-palmitoyloxy-stearate | 96 | 99 | – | – | –
7 | PEG1500 mono-12-palmitoyloxy-stearate | 103 | 101 | 98 | 105 | –
8 | PEG1500 mono-12-lauroyloxy-stearate | 93 | 37 | 100 | 96 | change in TEER / interaction with epithelial cells (in words) (CACO-2 cells; after 8 hours): substantial decrease in TEER
9 | MePEG2000 12-stearoyloxy-stearate | 98 | 96 | – | – | –
10 | PEG1500 mono-12-stearoyloxy-stearate | 103 | 108 | 98 | 104 | –
11 | COC1=CC(=O)C[C@@H](C)[C@]12Oc1c(Cl)c(OC)cc(OC)c1C2=O [griseofulvin] | – | – | – | – | solubility in water [2]: approximately 8.1 μg/ml; solubility (physchem; water): ~23 µM (≈ 8.11 µg/mL)
12 | CCCCCCCC(=O)OC(CCCCCC)CCCCCCCCCCC(=O)OCCOCCOCCOCCOCCOCCOCCOCCOCCOCCOCCOCCOCCO (stereo not shown) [PEG600 mono-12-octanoyloxy-stearate] | – | – | – | – | Hemolysis ([1]; surfactant conc 0.6 mM): 88%; Hemolysis ([1]; surfactant conc 0.7 mM): 102%
13 | CCOC(=O)C1=C(C)NC(C)=C(C(=O)OC)C1c1cccc(Cl)c1Cl (stereo not shown) [felodipine] | – | – | – | – | solubility in water [2]: 0.8 µg/mL (≈ 2.08 µM); solubility in water (physchem): 2.1 µM (≈ 0.807 µg/mL)
14 | PEG1500 mono-12-myristoyloxy-stearate | 104 | 98 | 104 | 100 | –
